Test results as given in article PMC9403976, “Elucidating the path to Plasmodium prolyl-tRNA synthetase inhibitors that overcome halofuginone resistance” (Nature Communications, 2022).
Values joined by “and” are separate entries in the source; they are usually repeats but may differ in a detail not shown here. Identical values can stand only once. Like-named read-outs stand apart in the source and are kept apart here.

Tests used:
HsProRS = HsProRS (Homo sapiens, UniProt P07814); experiment: TR-FRET ligand displacement assay with tracer MAT379 (CoraFluor-1-Halo and anti-His6 antibody formats); assay type: binding; parameters: made in house; host or cells: E. coli SoluBL-21; conditions: for TR-FRET dose-response, normalized signal (SI Fig 11): individual replicates
HsProRS, sequence (P07814 996-1512): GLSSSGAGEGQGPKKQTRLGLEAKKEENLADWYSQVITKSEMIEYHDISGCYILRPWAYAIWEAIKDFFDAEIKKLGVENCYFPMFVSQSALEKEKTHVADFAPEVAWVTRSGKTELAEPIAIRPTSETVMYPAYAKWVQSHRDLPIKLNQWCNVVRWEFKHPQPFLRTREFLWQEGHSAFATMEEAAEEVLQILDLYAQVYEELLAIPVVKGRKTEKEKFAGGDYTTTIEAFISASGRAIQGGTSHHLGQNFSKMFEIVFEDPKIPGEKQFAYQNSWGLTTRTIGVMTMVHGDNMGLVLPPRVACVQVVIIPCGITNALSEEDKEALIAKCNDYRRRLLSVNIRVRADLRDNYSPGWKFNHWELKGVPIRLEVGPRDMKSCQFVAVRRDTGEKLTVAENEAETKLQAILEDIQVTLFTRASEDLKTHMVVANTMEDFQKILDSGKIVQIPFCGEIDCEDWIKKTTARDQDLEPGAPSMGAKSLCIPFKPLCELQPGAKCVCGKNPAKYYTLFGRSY

[1] = system: halofuginone-induced P. falciparum (elevated proline homeostasis); experiment: P. falciparum ABS growth assay, SYBR Green, 72 h, halofuginone-induced parasites; assay type: cell-based, Plasmodium falciparum; conditions: for parasite growth, dose-response point: Halofuginone-Induced (HFG-Induced), single replicates
Summary of the method: (§1)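 Growth inhibition of the resistant and induced Dd2 lines is measured over 72 h in triplicate dose-response, starting at 1% parasitemia and 1% hematocrit. SYBR Green 1 staining gives the fluorescence readout, normalized between 10 μM dihydroartemisinin and no-compound wells.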

PfcProRS = biological target: T1, PfcProRS (Plasmodium falciparum, UniProt Q8I5R7); assay type: binding; conditions: for dose-response signal (normalized), SI Fig 8: single replicates
T1 construct: made in house; host or cells: E. coli SoluBL-21
T1 sequence (Q8I5R7 249-746): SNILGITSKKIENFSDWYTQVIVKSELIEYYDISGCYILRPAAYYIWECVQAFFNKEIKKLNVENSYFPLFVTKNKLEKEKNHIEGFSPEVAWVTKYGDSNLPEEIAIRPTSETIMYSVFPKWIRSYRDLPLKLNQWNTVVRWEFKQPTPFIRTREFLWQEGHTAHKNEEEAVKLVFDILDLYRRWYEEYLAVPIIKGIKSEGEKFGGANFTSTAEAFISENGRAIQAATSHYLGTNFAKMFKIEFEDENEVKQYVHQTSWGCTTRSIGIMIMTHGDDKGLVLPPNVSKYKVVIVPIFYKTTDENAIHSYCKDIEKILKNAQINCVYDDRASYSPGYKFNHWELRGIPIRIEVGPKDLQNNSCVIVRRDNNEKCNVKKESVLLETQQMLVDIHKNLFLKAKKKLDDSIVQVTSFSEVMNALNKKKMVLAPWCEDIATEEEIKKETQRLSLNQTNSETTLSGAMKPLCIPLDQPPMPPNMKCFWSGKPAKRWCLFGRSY

[2] = system: HFGR-I P. falciparum (elevated proline homeostasis and PfcProRS^L482H); experiment: P. falciparum ABS growth assay, SYBR Green, 72 h, HFGR-I parasites; assay type: cell-based, Plasmodium falciparum; conditions: HFGR-I, single replicates
Summary of the method: as §1

P. falciparum Dd2-2D4 = experiment: P. falciparum asexual blood stage (ABS) growth assay, SYBR Green, 72 h, wild-type parasites; assay type: cell-based, Plasmodium falciparum; conditions: for ABS growth dose-response, normalized signal (Replicates 1-3) / parasite growth, dose-response point: Dd2-2D4; for parasite growth, dose-response point: single replicates

SMILES: CC1(C(=O)Nc2nccnc2C(=O)NC2Cc3ccccc3C2)CCCCC1 [compound 4]
- Kd (HsProRS; HsProRS (KD [nM]) −, absence of substrates, 250 nM MAT379): 221 nM
- Kd (HsProRS; HsProRS - best Kd, SI Fig 16a, values on -log scale): 2.55 nM
- normalized TR-FRET ligand displacement signal, dose-response replicates (SI Fig 6) (HsProRS; Log[inhibitor] (M) -5.000): 4.53E-02 and 6.57E-02 and 9.85E-02
- TR-FRET dose-response, normalized signal (SI Fig 11) (HsProRS; Log[inhibitor] (M) -5.000): 6.99E-03 and -1.87E-02 and 8.97E-03
- normalized TR-FRET ligand displacement signal, dose-response replicates (SI Fig 6) (HsProRS; Log[inhibitor] (M) -5.301): 8.38E-02 and 1.09E-01 and 1.45E-01
- TR-FRET dose-response, normalized signal (SI Fig 11) (HsProRS; Log[inhibitor] (M) -5.301): 5.00E-02 and 2.79E-02 and 4.24E-02
- normalized TR-FRET ligand displacement signal, dose-response replicates (SI Fig 6) (HsProRS; Log[inhibitor] (M) -5.601): 2.80E-01 and 1.33E-01 and 2.62E-01
- TR-FRET dose-response, normalized signal (SI Fig 11) (HsProRS; Log[inhibitor] (M) -5.601): 1.01E-01 and 8.93E-02 and 1.03E-01
- normalized TR-FRET ligand displacement signal, dose-response replicates (SI Fig 6) (HsProRS; Log[inhibitor] (M) -5.904): 4.58E-01 and 3.89E-01 and 4.73E-01
- TR-FRET dose-response, normalized signal (SI Fig 11) (HsProRS; Log[inhibitor] (M) -5.904): 1.64E-01 and 2.16E-01 and 1.95E-01
- normalized TR-FRET ligand displacement signal, dose-response replicates (SI Fig 6) (HsProRS; Log[inhibitor] (M) -6.208): 6.24E-01 and 6.52E-01 and 5.78E-01
- TR-FRET dose-response, normalized signal (SI Fig 11) (HsProRS; Log[inhibitor] (M) -6.208): 2.83E-01 and 3.32E-01 and 2.85E-01
- normalized TR-FRET ligand displacement signal, dose-response replicates (SI Fig 6) (HsProRS; Log[inhibitor] (M) -6.509): 8.00E-01 and 8.38E-01 and 8.01E-01
- TR-FRET dose-response, normalized signal (SI Fig 11) (HsProRS; Log[inhibitor] (M) -6.509): 4.57E-01 and 4.64E-01 and 4.80E-01
- normalized TR-FRET ligand displacement signal, dose-response replicates (SI Fig 6) (HsProRS; Log[inhibitor] (M) -6.796): 9.06E-01 and 8.75E-01 and 9.05E-01
- TR-FRET dose-response, normalized signal (SI Fig 11) (HsProRS; Log[inhibitor] (M) -6.796): 6.22E-01 and 6.48E-01 and 6.15E-01
- normalized TR-FRET ligand displacement signal, dose-response replicates (SI Fig 6) (HsProRS; Log[inhibitor] (M) -7.108): 9.19E-01 and 1.02E+00 and 8.47E-01
- TR-FRET dose-response, normalized signal (SI Fig 11) (HsProRS; Log[inhibitor] (M) -7.108): 7.25E-01 and 7.35E-01 and 7.08E-01
- normalized TR-FRET ligand displacement signal, dose-response replicates (SI Fig 6) (HsProRS; Log[inhibitor] (M) -7.409): 8.93E-01 and 1.05E+00 and 9.99E-01
- TR-FRET dose-response, normalized signal (SI Fig 11) (HsProRS; Log[inhibitor] (M) -7.409): 8.57E-01 and 8.69E-01 and 8.79E-01
- normalized TR-FRET ligand displacement signal, dose-response replicates (SI Fig 6) (HsProRS; Log[inhibitor] (M) -7.710): 9.69E-01 (2×) and 9.96E-01
- TR-FRET dose-response, normalized signal (SI Fig 11) (HsProRS; Log[inhibitor] (M) -7.710): 9.21E-01 and 9.18E-01 and 9.07E-01
- normalized TR-FRET ligand displacement signal, dose-response replicates (SI Fig 6) (HsProRS; Log[inhibitor] (M) -8.000): 1.02E+00 and 9.51E-01 and 1.08E+00
- TR-FRET dose-response, normalized signal (SI Fig 11) (HsProRS; Log[inhibitor] (M) -8.000): 9.42E-01 and 9.60E-01 and 9.15E-01
- normalized TR-FRET ligand displacement signal, dose-response replicates (SI Fig 6) (HsProRS; Log[inhibitor] (M) -8.301): 8.99E-01 and 1.00E+00 and 9.75E-01
- TR-FRET dose-response, normalized signal (SI Fig 11) (HsProRS; Log[inhibitor] (M) -8.301): 9.32E-01 and 9.20E-01 and 9.46E-01
- normalized TR-FRET ligand displacement signal, dose-response replicates (SI Fig 6) (HsProRS; Log[inhibitor] (M) -8.602): 9.54E-01 and 1.01E+00 and 9.27E-01
- TR-FRET dose-response, normalized signal (SI Fig 11) (HsProRS; Log[inhibitor] (M) -8.602): 9.70E-01 and 9.45E-01 and 9.16E-01
- normalized TR-FRET ligand displacement signal, dose-response replicates (SI Fig 6) (HsProRS; Log[inhibitor] (M) -9.000): 9.66E-01 and 9.16E-01 and 8.85E-01
- TR-FRET dose-response, normalized signal (SI Fig 11) (HsProRS; Log[inhibitor] (M) -9.000): 9.54E-01 and 9.83E-01 and 9.88E-01
- normalized TR-FRET ligand displacement signal, dose-response replicates (SI Fig 6) (HsProRS; Log[inhibitor] (M) -9.301): 1.02E+00 (2×) and 1.01E+00
- TR-FRET dose-response, normalized signal (SI Fig 11) (HsProRS; Log[inhibitor] (M) -9.301): 9.40E-01 and 9.47E-01 and 9.44E-01
- parasite growth, dose-response point ([1]; Log[inhibitor] (M) -5): 1
- parasite growth, dose-response point ([1]; Log[inhibitor] (M) -5.408): 1
- parasite growth, dose-response point ([1]; Log[inhibitor] (M) -5.816): 0 (2×) and 1
- parasite growth, dose-response point ([1]; Log[inhibitor] (M) -6.222): 16 and 18 and 17
- parasite growth, dose-response point ([1]; Log[inhibitor] (M) -6.638): 99 (2×) and 106
- parasite growth, dose-response point ([1]; Log[inhibitor] (M) -7.046): 103 (2×) and 109
- parasite growth, dose-response point ([1]; Log[inhibitor] (M) -7.45): 100 and 97
- parasite growth, dose-response point ([1]; Log[inhibitor] (M) -7.854): 100 (2×) and 97
- parasite growth, dose-response point ([1]; Log[inhibitor] (M) -8.26): 101 and 95 and 97
- parasite growth, dose-response point ([1]; Log[inhibitor] (M) -8.699): 99 and 98 (2×)
- parasite growth, dose-response point ([1]; Log[inhibitor] (M) -9): 96 (2×) and 97
- parasite growth, dose-response point ([1]; Log[inhibitor] (M) -9.488): 98 and 95 and 102
- dose-response value, Replicates 1-3 (SI Fig 2e) ([1]; Log[inhibitor] (M) -5.000): 1
- dose-response value, Replicates 1-3 (SI Fig 2e) ([1]; Log[inhibitor] (M) -5.408): 1
- dose-response signal (normalized), SI Fig 8 (PfcProRS; Log[inhibitor] (M) -5.000): 4.05E-02 and -1.19E-01 and -1.91E-02
- dose-response signal (normalized), SI Fig 8 (PfcProRS; Log[inhibitor] (M) -5.301): -7.53E-02 and -2.32E-02 and 3.73E-02
- dose-response signal (normalized), SI Fig 8 (PfcProRS; Log[inhibitor] (M) -5.601): -7.78E-02 and -2.66E-03 and -2.25E-02
- dose-response signal (normalized), SI Fig 8 (PfcProRS; Log[inhibitor] (M) -5.904): 1.67E-02 and 2.48E-02 and 1.76E-02
- dose-response signal (normalized), SI Fig 8 (PfcProRS; Log[inhibitor] (M) -6.208): 8.20E-02 and 4.30E-02 and 6.02E-02
- dose-response signal (normalized), SI Fig 8 (PfcProRS; Log[inhibitor] (M) -6.509): 7.49E-03 and -2.38E-02 and -1.11E-02
- dose-response signal (normalized), SI Fig 8 (PfcProRS; Log[inhibitor] (M) -6.796): 4.86E-02 and 3.80E-02 and -1.10E-02
- dose-response signal (normalized), SI Fig 8 (PfcProRS; Log[inhibitor] (M) -7.108): 4.17E-02 and 7.57E-02 and 3.79E-02
- dose-response signal (normalized), SI Fig 8 (PfcProRS; Log[inhibitor] (M) -7.409): 2.11E-01 and 1.42E-01 and 1.90E-01
- dose-response signal (normalized), SI Fig 8 (PfcProRS; Log[inhibitor] (M) -7.710): 4.47E-01 and 2.93E-01 and 4.00E-01
- dose-response signal (normalized), SI Fig 8 (PfcProRS; Log[inhibitor] (M) -8.000): 7.09E-01 and 7.29E-01 and 6.69E-01
- dose-response signal (normalized), SI Fig 8 (PfcProRS; Log[inhibitor] (M) -8.301): 8.70E-01 and 9.23E-01 and 9.80E-01
- dose-response signal (normalized), SI Fig 8 (PfcProRS; Log[inhibitor] (M) -8.602): 1.09E+00 and 9.73E-01 and 1.05E+00
- dose-response signal (normalized), SI Fig 8 (PfcProRS; Log[inhibitor] (M) -9.000): 9.29E-01 and 9.06E-01 and 9.66E-01
- dose-response signal (normalized), SI Fig 8 (PfcProRS; Log[inhibitor] (M) -9.301): 8.49E-01 and 1.04E+00 and 9.72E-01
- PfcProRS -- best Kd (PfcProRS; SI Fig 16a, values on -log scale): 8.466
- parasite growth, dose-response point ([2]; Log[inhibitor] (M) -5): 6 and 7 (2×)
- parasite growth, dose-response point ([2]; Log[inhibitor] (M) -5.408): 7 (2×) and 6
- parasite growth, dose-response point ([2]; Log[inhibitor] (M) -5.816): 6 (2×) and 7
- parasite growth, dose-response point ([2]; Log[inhibitor] (M) -6.222): 10 (2×) and 9
- parasite growth, dose-response point ([2]; Log[inhibitor] (M) -6.638): 75 and 76 and 81
- parasite growth, dose-response point ([2]; Log[inhibitor] (M) -7.046): 99 and 105 and 110
- parasite growth, dose-response point ([2]; Log[inhibitor] (M) -7.45): 87 and 99 and 100
- parasite growth, dose-response point ([2]; Log[inhibitor] (M) -7.854): 99 and 98 and 103
- parasite growth, dose-response point ([2]; Log[inhibitor] (M) -8.26): 100 and 101 and 104
- parasite growth, dose-response point ([2]; Log[inhibitor] (M) -8.699): 98 and 99 and 104
- parasite growth, dose-response point ([2]; Log[inhibitor] (M) -9): 101 and 97 and 100
- parasite growth, dose-response point ([2]; Log[inhibitor] (M) -9.488): 89 and 96 and 93
- ABS growth dose-response, normalized signal (Replicates 1-3) (P. falciparum Dd2-2D4; Log[inhibitor] (M) -5.000): 0
- parasite growth, dose-response point (P. falciparum Dd2-2D4; Log[inhibitor] (M) -5.000): 0
- ABS growth dose-response, normalized signal (Replicates 1-3) (P. falciparum Dd2-2D4; Log[inhibitor] (M) -5.301): 0
- parasite growth, dose-response point (P. falciparum Dd2-2D4; Log[inhibitor] (M) -5.301): 0
- ABS growth dose-response, normalized signal (Replicates 1-3) (P. falciparum Dd2-2D4; Log[inhibitor] (M) -5.602): 0
- parasite growth, dose-response point (P. falciparum Dd2-2D4; Log[inhibitor] (M) -5.602): 0
- ABS growth dose-response, normalized signal (Replicates 1-3) (P. falciparum Dd2-2D4; Log[inhibitor] (M) -6.505): 8
- parasite growth, dose-response point (P. falciparum Dd2-2D4; Log[inhibitor] (M) -6.505): 8
- EC50 (P. falciparum Dd2-2D4; Plasmodium falciparum, DD2, SI Fig 16b, values on -log scale, read-out: ABS - Dd2-2D4 (converted)): 180 nM
